Assay results published in US9637491B2, “Pyrazolo[4,3-D]pyrimidines as kinase inhibitors” (Origenis GmbH, priority 2012, dated 2017).

Target: T1, SYK kinase (Homo sapiens, UniProt P43405)
T1 construct: purchased Invitrogen, Carlsbad
Experiment: SYK assay (OMNIA Kinase Assay, Invitrogen)
Type: biochemical
Settings: SYK Activities; 1 mM ATP, 10 μM Omnia Peptide Substrate Tyr 7, 30° C.
Description: In the assay OMNIA® KINASE ASSAY by Invitrogen Corporation (Carlsbad) the effect of invention of a compound on the phosphorylation is determined by measurement of fluorescence intensity of a chelation-enhanced fluorophore called SOX. Upon phosphorylation of the peptide by the kinase of interest, Mg2+ is chelated to form a bridge between the SOX moiety and the phosphate group that is transferred to the specific tyrosine on the peptide. The fluorescence intensity is directly proportional to the amount of peptide phosphorylation.
To the wells of an 384 well small volume plate (Greiner, Frickenhausen) are added (i) the compound under test in 5% DMSO/distilled water (2 μl), (ii) 16 μl of the master mix containing ATP, DTT, Kinase Reaction Buffer, Omina Peptide Substrate Tyr 7 resulting in a final concentration of 1 mM ATP, 0.2 mM DTT and 10 μM Peptide Substrate. The Master Mix and the assay plate was incubated to reaction temperature before the measurement (30° C.). The reaction was started with addition of (iii) 2 μl 4 μg/ml SYK kinase (Invitrogen, Carlsbad). During measurement fluorescence intensitiy readings were collected using a TECAN M1000 at a wavelength of λex 360/λem 485 nm every 30 s for 30 minutes. The reaction velocity was plotted versus the inhibitor concentration to determine the IC50 using XLFit 5.0 (IDBS, Guildford) to fit to a sigmoidal dose response curve.

Row | IC50 [µM] | Compound
1 | 0.1 to 1 | N#CC1(n2cc(Nc3nc(-c4ccco4)nc4cn[nH]c34)cn2)CCCCC1 [Example 213, 1-(4-((5-(furan-2-yl)-1H-pyrazolo[4,3-d]pyrimidin-7-yl)amino)-1H-pyrazol-1-yl)cyclohexanecarbonitrile]
2 | 0.01 to 0.1 | COc1cccc(-c2nc(Nc3cnn(C4CCN(C(C)(C)C)CC4)c3)c3[nH]ncc3n2)c1 [Example 407, N-(1-(1-(tert-butyl)piperidin-4-yl)-1H-pyrazol-4-yl)-5-(3-methoxyphenyl)-1H-pyrazolo[4,3-d]pyrimidin-7-amine]
3 | 0.01 to 0.1 | CC(C)Cn1cc(Nc2nc(C3CC3)nc3cn[nH]c23)cn1 [Example 233, 5-cyclopropyl-N-(1-isobutyl-1H-pyrazol-4-yl)-1H-pyrazolo[4,3-d]pyrimidin-7-amine]
4 | 0.1 to 1 | CC(=O)N1CCC(n2cc(Nc3nc(C(C)C)nc4cn[nH]c34)cn2)CC1 [Example 186, 1-(4-(4-((5-isopropyl-1H-pyrazolo[4,3-d]pyrimidin-7-yl)amino)-1H-pyrazol-1-yl)piperidin-1-yl)ethan-1-one]
5 | 0.1 to 1 | COCCn1ncc(Nc2nc(-c3ccco3)nc3cn[nH]c23)c1N(C)C [Example 404, N4-(5-(furan-2-yl)-1H-pyrazolo[4,3-d]pyrimidin-7-yl)-1-(2-methoxyethyl)-N5,N5-dimethyl-1H-pyrazole-4,5-diamine]
6 | < 0.01 | c1ccc2sc(-c3nc(Nc4cnn(C5CCOCC5)c4)c4[nH]ncc4n3)nc2c1 [Example 413, 5-(benzo[d]thiazol-2-yl)-N-(1-(tetrahydro-2H-pyran-4-yl)-1H-pyrazol-4-yl)-1H-pyrazolo[4,3-d]pyrimidin-7-amine]
7 | 0.01 to 0.1 | Cc1ccsc1-c1nc(Nc2ccc(N3CCOCC3)cc2)c2[nH]ncc2n1 [Example 52, 5-(3-methylthiophen-2-yl)-N-(4-morpholinophenyl)-1H-pyrazolo[4,3-d]pyrimidin-7-amine]
8 | 0.1 to 1 | O=C(c1ccc(Nc2nc(-c3ccoc3)nc3cn[nH]c23)cc1F)N1CCOCC1 [Example 201, (2-fluoro-4-((5-(furan-3-yl)-1H-pyrazolo[4,3-d]pyrimidin-7-yl)amino)phenyl)(morpholino)methanone]
9 | 0.1 to 1 | O=S1(=O)CCc2ccc(Nc3nc(-c4cccs4)nc4cn[nH]c34)cc21 [Example 17, 6-((5-(thiophen-2-yl)-1H-pyrazolo[4,3-d]pyrimidin-7-yl)amino)-2,3-dihydrobenzo[b]thiophene 1,1-dioxide]
10 | 0.01 to 0.1 | Cc1ccc(-c2nc(Nc3ccc(N4CCOCC4)cc3)c3[nH]ncc3n2)s1 [Example 9, 5-(5-methylthiophen-2-yl)-N-(4-morpholinophenyl)-1H-pyrazolo[4,3-d]pyrimidin-7-amine]
11 | < 0.01 | CC(C)n1cc(Nc2nc(-c3ccco3)nc3cn[nH]c23)cn1 [Example 214, 5-(furan-2-yl)-N-(1-isopropyl-1H-pyrazol-4-yl)-1H-pyrazolo[4,3-d]pyrimidin-7-amine]
12 | 0.01 to 0.1 | COCCn1cc(Nc2nc(-c3ccco3)nc3cn[nH]c23)cn1 [Example 195, 5-(furan-2-yl)-N-(1-(2-methoxyethyl)-1H-pyrazol-4-yl)-1H-pyrazolo[4,3-d]pyrimidin-7-amine]
13 | < 0.01 | COCCCn1cc(Nc2nc(-c3ccco3)nc3cn[nH]c23)cn1 [Example 215, 5-(furan-2-yl)-N-(1-(3-methoxypropyl)-1H-pyrazol-4-yl)-1H-pyrazolo[4,3-d]pyrimidin-7-amine]
14 | 0.01 to 0.1 | CC(C)(C)n1cc(Nc2nc(C3CCC3)nc3cn[nH]c23)cn1 [Example 222, N-(1-(tert-butyl)-1H-pyrazol-4-yl)-5-cyclobutyl-1H-pyrazolo[4,3-d]pyrimidin-7-amine]
15 | 0.1 to 1 | COCCn1cc(Nc2nc(C(C)C)nc3cn[nH]c23)cn1 [Example 185, 5-isopropyl-N-(1-(2-methoxyethyl)-1H-pyrazol-4-yl)-1H-pyrazolo[4,3-d]pyrimidin-7-amine]
16 | 0.1 to 1 | COCCCn1cc(Nc2nc(-c3cccc(S(N)(=O)=O)c3)nc3cn[nH]c23)cn1 [Example 424, 3-(7-((1-(3-methoxypropyl)-1H-pyrazol-4-yl)amino)-1H-pyrazolo[4,3-d]pyrimidin-5-yl)benzenesulfonamide]
17 | 0.01 to 0.1 | CN1CCC(n2cc(Nc3nc(C4CC4)nc4cn[nH]c34)cn2)CC1 [Example 207, 5-cyclopropyl-N-(1-(1-methylpiperidin-4-yl)-1H-pyrazol-4-yl)-1H-pyrazolo[4,3-d]pyrimidin-7-amine]
18 | 0.01 to 0.1 | CC(C)Cn1cc(Nc2nc(-c3cocn3)nc3cn[nH]c23)cn1 [Example 246, N-(1-isobutyl-1H-pyrazol-4-yl)-5-(oxazol-4-yl)-1H-pyrazolo[4,3-d]pyrimidin-7-amine]

Row | IC50 [µM] | Compound
19 | 0.1 to 1 | CC(C)(C#N)n1cc(Nc2nc(-c3ccco3)nc3cn[nH]c23)cn1 [Example 211, 2-(4-((5-(furan-2-yl)-1H-pyrazolo[4,3-d]pyrimidin-7-yl)amino)-1H-pyrazol-1-yl)-2-methylpropanenitrile]
20 | 0.01 to 0.1 | c1cc(N2CCOCC2)ccc1Nc1nc(-c2cn[nH]c2)nc2cn[nH]c12 [Example 394, N-(4-morpholinophenyl)-5-(1H-pyrazol-4-yl)-1H-pyrazolo[4,3-d]pyrimidin-7-amine]
21 | 0.1 to 1 | Cn1ccc(-c2nc(Nc3ccc(N4CCOCC4)cc3)c3[nH]ncc3n2)n1 [Example 175, 5-(1-methyl-1H-pyrazol-3-yl)-N-(4-morpholinophenyl)-1H-pyrazolo[4,3-d]pyrimidin-7-amine]
22 | < 0.01 | COCCCn1cc(Nc2nc(-c3ccoc3)nc3cn[nH]c23)cn1 [Example 221, 5-(furan-3-yl)-N-(1-(3-methoxypropyl)-1H-pyrazol-4-yl)-1H-pyrazolo[4,3-d]pyrimidin-7-amine]
23 | 0.01 to 0.1 | CC(C)(C#N)n1cc(Nc2nc(-c3ccc4cn[nH]c4c3)nc3cn[nH]c23)cn1 [Example 416, 2-(4-((5-(1H-indazol-6-yl)-1H-pyrazolo[4,3-d]pyrimidin-7-yl)amino)-1H-pyrazol-1-yl)-2-methylpropanenitrile]
24 | 0.01 to 0.1 | N#Cc1cc(Nc2nc(-c3ccc4cn[nH]c4c3)nc3cn[nH]c23)ccc1N1CCOCC1 [Example 85, 5-((5-(1H-indazol-6-yl)-1H-pyrazolo[4,3-d]pyrimidin-7-yl)amino)-2-morpholinobenzonitrile]
25 | 0.1 to 1 | c1nn(C2CCOCC2)cc1Nc1nc(C2C3CCCCC32)nc2cn[nH]c12 (stereo not drawn) [Example 473, 5-(bicyclo[4.1.0]heptan-7-yl)-N-(1-(tetrahydro-2H-pyran-4-yl)-1H-pyrazol-4-yl)-1H-pyrazolo[4,3-d]pyrimidin-7-amine]
26 | 0.1 to 1 | c1cc(N2CCNCC2)ccc1Nc1nc(C2CC2)nc2cn[nH]c12 [Example 55, 5-cyclopropyl-N-(4-(piperazin-1-yl)phenyl)-1H-pyrazolo[4,3-d]pyrimidin-7-amine]
27 | 0.01 to 0.1 | OC1CCN(c2ccc(Nc3nc(-c4ccco4)nc4cn[nH]c34)cc2)CC1 [Example 450, 1-(4-((5-(furan-2-yl)-1H-pyrazolo[4,3-d]pyrimidin-7-yl)amino)phenyl)piperidin-4-ol]
28 | 0.1 to 1 | O=C1OCCN1c1ccc(Nc2nc(-c3ccoc3)nc3cn[nH]c23)cc1 [Example 98]
29 | 0.01 to 0.1 | c1coc(-c2nc(Nc3ccc(N4CCOCC4)cc3)c3[nH]ncc3n2)c1 [Example 86, 5-(furan-2-yl)-N-(4-morpholinophenyl)-1H-pyrazolo[4,3-d]pyrimidin-7-amine]
30 | 0.01 to 0.1 | COCCn1cc(Nc2nc(C3CCC3)nc3cn[nH]c23)cn1 [Example 191, 5-cyclobutyl-N-(1-(2-methoxyethyl)-1H-pyrazol-4-yl)-1H-pyrazolo[4,3-d]pyrimidin-7-amine]
31 | 0.1 to 1 | O=C(c1ccc(Nc2nc(C3CCC3)nc3cn[nH]c23)cc1F)N1CCOCC1 [Example 193, (4-((5-cyclobutyl-1H-pyrazolo[4,3-d]pyrimidin-7-yl)amino)-2-fluorophenyl)(morpholino)methanone]
32 | 0.1 to 1 | COc1cc(Nc2nc(-c3ccno3)nc3cn[nH]c23)ccc1N1CCOCC1 [Example 71, 5-(isoxazol-5-yl)-N-(3-methoxy-4-morpholinophenyl)-1H-pyrazolo[4,3-d]pyrimidin-7-amine]
33 | 0.1 to 1 | COc1cc(Nc2nc(-c3c(C)cccc3F)nc3cn[nH]c23)ccc1N1CCOCC1 [Example 481, 5-(2-fluoro-6-methylphenyl)-N-(3-methoxy-4-morpholinophenyl)-1H-pyrazolo[4,3-d]pyrimidin-7-amine]
34 | < 0.01 | CC(C)n1cc(Nc2nc(-c3ccoc3)nc3cn[nH]c23)cn1 [Example 220, 5-(furan-3-yl)-N-(1-isopropyl-1H-pyrazol-4-yl)-1H-pyrazolo[4,3-d]pyrimidin-7-amine]
35 | 0.01 to 0.1 | FC(F)(F)Cn1cc(Nc2nc(C3CC3)nc3cn[nH]c23)cn1 [Example 374, 5-cyclopropyl-N-(1-(2,2,2-trifluoroethyl)-1H-pyrazol-4-yl)-1H-pyrazolo[4,3-d]pyrimidin-7-amine]
36 | 0.1 to 1 | CC(=O)N1CCN(c2ccc(Nc3nc(C(C)C)nc4cn[nH]c34)cc2)CC1 [Example 180, 1-(4-(4-((5-isopropyl-1H-pyrazolo[4,3-d]pyrimidin-7-yl)amino)phenyl)piperazin-1-yl)ethan-1-one]
